US10471044B2, “Post nerve injury rehabilitation effect-enhancing agent comprising alkyl ether derivative or salt thereof” (FUJIFILM Toyama Chemical Co., Ltd., priority 2014, dated 2019)

Columns and labels:
[1] = system: forelimb function lost after freezing damage-induced brain injury; assay: Recovery by training of forelimb function lost after freezing damage-induced brain injury; assay type: in vivo, C57BL/6J mice; details: mice, oral twice a day 30 mg/kg/time plus training 30 min/day, evaluated 21-49 days after damage, compared to the other groups (control, Compound A without training, training only), FIG. 1
Method: Action of enhancing the recovery effect obtained by training the forelimb function lost after freezing damage-induced brain injury was examined. A test was performed using the following method, by referring to the method described in Journal of Neuroscience Methods, Vol. 193, Issue 1, Pages 82-85 (2010) and Nature, Vol. 462, Issue 7275, Pages 915-919 (2009). Six-week-old male C57BL/6J mice (Charles River Japan) were used in the test. The mice were raised in an environment in which they had free access to feed and water, under a light-dark cycle of 12 hours (light period: 7:00-19:00, dark period: 19:00-7:00). The mice were randomly assigned to the groups. [table] An acrylic rectangular enclosure (length×width×height; 15×8.5×20 cm) in which only the front face of the four faces was transparent, and the other three faces were black was used. A slit measuring 0.5 cm in width×13 cm in height was formed on the right side of the front face when seen from the front. A transparent acrylic plate measuring 8.5 cm in width×1.25 cm in height was used as the feed plate. Diced almonds (K's Factory, Co., Ltd.) were used as the feed for use in the evaluation. […] A case where a mouse was able to extend the left forelimb through the slit, and carry the diced almond into the mouth without dropping it was determined to be successful. […]

[2] = system: upper limb function lost after brain injury; assay: Recovery by rehabilitation-like training of upper limb function lost after brain injury (internal capsule hemorrhage cynomolgus monkey models); assay type: in vivo, cynomolgus monkeys; details: 1 animal
Text: Test Example 3 Action of enhancing the recovery effect obtained with rehabilitation-like training of the upper limb function lost after brain injury was examined, using internal capsule hemorrhage cynomolgus monkey models.
Two male cynomolgus monkeys (Tsukuba Primate Research Center, National Institute of Biomedical Innovation) were used in the test. The cynomolgus monkeys were raised in a breeding cage for old world monkeys (length×width×height; 79×47×80 cm) in which they had free access to feed and water, under a light-dark cycle of 12 hours (light period: 7:00-19:00 dark period: 19:00-7:00).
Motor learning and an upper limb function evaluation were performed by making the cynomolgus monkeys take feed provided in front of the breeding cage. A 3.5- or 7 mm square piece of apple was used as the feed for use in the evaluation.
In order to allow the cynomolgus monkeys to acclimate to the testing apparatus, and determine the dominant hand of each of the individuals, a 7 mm square piece of apple attached to a needle tip was provided in the center of the front face of the cage, and the behavior of the cynomolgus monkey taking the feed was observed. The hand more often used in a total of 150 trials (30 trials a day for 5 days) was determined as its dominant hand. […]

[3] = system: forelimb function lost after internal capsule hemorrhage-induced brain injury; assay: Recovery by training of forelimb function lost after internal capsule hemorrhage-induced brain injury (mouse models); assay type: in vivo, C57BL/6J mice; details: mice, oral once a day 20 mg/kg/time plus training 30 min/day, evaluated 31-63 days after induction, compared to trained control group, FIG. 2
Method: Action of enhancing the recovery effect obtained by training the forelimb function lost after internal capsule hemorrhage-induced brain injury was examined, using internal capsule hemorrhage mouse models. A test was carried out using the following method, by referring to Plos One, Vol. 8, e67691 (2013) and Behav Brain Res., Vol. 20, Issue 225, Pages 126-34 (2011). Six-week-old male C57BL/6J mice (Charles River Japan) were used in the test. The mice were raised in an environment in which they had free access to feed and water, under a light-dark cycle of 12 hours (light period: 7:00-19:00, dark period: 19:00-7:00). The mice were randomly assigned to the groups. [table] An acrylic rectangular enclosure (length×width×height; 15×8.5×20 cm) in which only the front face of the four faces was transparent, and the other three faces were black was used. A slit measuring 0.5 cm in width×13 cm in height was formed on the right side of the front face when seen from the front. A transparent acrylic plate measuring 8.5 cm in width×1.25 cm in height was used as the feed plate. Diced almonds (K's Factory, Co., Ltd.) were used as the feed for use in the evaluation. […] A case where a mouse was able to extend the left forelimb through the slit, and carry the diced almond into the mouth without dropping it was determined to be successful. […]

OC1CN(CCCOCCc2ccc3sccc3c2)C1 [Compound A, 1-(3-(2-(1-benzothiophen-5-yl)ethoxy)propyl)azetidin-3-ol]
relative recovery rate (success rate of taking feed with left forelimb) [1]: much higher relative recovery rate within a short period
recovery after the brain injury (upper limb function) ([2]; intramuscular once a day 3 mg/kg/time plus rehabilitation-like training, versus trained animal without Compound A (recovery limited)): remarkable tendency to recovery was observed
accurate grasping ([2]; intramuscular once a day 3 mg/kg/time, after the beginning of the rehabilitation-like training, not observed in animal without Compound A): accurate grasping similar to that before the brain injury was observed
relative recovery rate (success rate of taking feed with left forelimb) [3]: much higher relative recovery rate
